Experimental data taken from patent US20260207618A1, “PYRIMIDINE CARBOXAMIDE COMPOUNDS” (Acrivon Therapeutics, Inc., priority 2022, published 2026).

How the values were obtained:
[1] = biological target: T1, recombinant human Wee1A kinase (Homo sapiens, UniProt P30291); assay: LanthaScreen Europium (Eu) Kinase Binding Assay, Wee1A kinase (TR-FRET tracer displacement); conditions: 30 nM tracer 178, 5 nM Wee1A kinase, 60 minutes at room temperature
T1 construct: full length Wee1A kinase was expressed by baculovirus in insect cells; purchased Invitrogen PV3817; host or cells: insect cells (baculovirus)
From the text: We used a LanthaScreen Europium (Eu) Kinase Binding Assay to determine the binding of provided compounds to Wee1A kinase. The assay utilizes an Alexa Fluor 647-labeled ATP competitive kinase tracer that binds to the ATP binding site of a GST-tagged Wee1A kinase, while a europium (Eu) labeled antibody binds to the GST tag. The proximity of fluorescently labeled kinase tracer and europium (Eu) donor fluorophore antibody leads to fluorescence resonance energy transfer (FRET) to the fluorescence label (acceptor) upon excitation of the Eu (donor). Displacement of tracer from the ATP-binding site by a test compound disturbs the proximity between both labels thus lowering the FRET.
This time resolved-FRET binding assay was performed in white 384-well low volume plates (Greiner, cat #784075), at room temperature in kinase buffer A (KBA; Invitrogen cat #PV3189), consisting of 50 mM HEPES-NaOH (pH 7.5), 0.01% Brij-35, 10 mM MgCl2, and 1 mM EGTA. 5 μl of compound (diluted in reaction buffer, to 1% DMSO) were added to various wells in the plate, followed by 5 μl each of recombinant human Wee1A kinase (full length Wee1A kinase was expressed by baculovirus in insect cells using a N-terminal GST tag (MW: 99.1 kDa) (Invitrogen cat #PV3817) and LanthaScreen Eu-anti-GST antibody (Invitrogen, cat #PV5594). After this, 5 μl of kinase tracer 178 (Invitrogen, cat #PV5593) was added to the plate and the plate was incubated for 60 minutes at room temperature. The final assay conditions in each well were: 30 nM tracer 178, 5 nM Wee1A kinase and 2 nM Eu-labeled antibody in total assay volume of 15 μl. An Envision 2104 (Perkin-Elmer) Plate Reader with the following time-resolve fluorescence setting was used for performing LanthaScreen kinase binding assay. • Excitation 320 nm (30 nm bandpass) • Kinase Tracer Emission 665 nm (10 nm bandpass) • LanthaScreen Eu-anti-Tag Antibody Emission 615 nm (10 nm bandpass) • Dichroic Mirror Instrument dependent • Delay Time 100 μs • Integration Time 200 μs
To calculate the emission ratio, the acceptor/tracer emission ([…]) was divided by the antibody/donor emission ([…]) and the average of duplicate measurement was used for calculations. Data plotting, analysis of binding, and curve fitting was done using Excel add-in XLfit version 5.5.0.5 (IDBS, Guildford, United Kingdom).

[2] = system: Cdk1 phosphorylated on tyrosine 15; assay: High-content imaging of pCdk1 Y15 by immunofluorescence in ACHN cells; format: cell-based; conditions: Homo sapiens, high-content imaging (IF), 4 h, 7 to 5000 nM, read-out: CDK1 Tyr15 Phosphorylation EC50 (IC50)
Protocol: ACHN renal cell carcinoma cell line (ATCC) was cultured in Minimum Essential Medium Eagle supplemented with 10% fetal calf serum (Sigma), 1% Penicillin-Streptomycin and 10 mM HEPES buffer (HyClone). Cell cultures were kept in a humidified incubator at 37° C. and 5% CO2. Cells were routinely tested for Mycoplasma contamination.
High-content imaging of ACHN renal cell carcinoma cells was used for quantification of CDK1 phosphorylated on tyrosine 15 by immunofluorescence (“IF”). 20 000 cells per well were seeded in tissue culture treated 96 well plates and treated with compounds at concentrations ranging from 7 to 5000 nM for 4 h. Cells were fixated for 15 minutes in 4% paraformaldehyde solution, washed in PBS and permeabilized using 0.2% Triton X-100. Blocking was performed for 1 h at RT using Blocker FL Fluorescent Blocking Buffer (Thermo Scientific), thereafter cells were incubated with primary antibody (rabbit anti-pCDK1 Y^15, #4539, Cell Signaling Technology) at 4° C. ON. Alexa Fluor Plus 647 labelled goat anti-rabbit (A32733. Thermo Scientific) was used as secondary antibody. After washing in PBS, nuclei were stained with DAPI solution for 10 min at RT, protected from light. Cells were imaged using an ImageXpress Pico automated imaging system and CellReporter Xpress software (Molecular Devices). The percentage cells with nuclear positivity for pCdk1 Y^15 compared to DMSO control was determined for each well and drug dose response curves and EC50 values were calculated and visualized using GraphPad Prism.

T1 sequence (P30291 whole entry): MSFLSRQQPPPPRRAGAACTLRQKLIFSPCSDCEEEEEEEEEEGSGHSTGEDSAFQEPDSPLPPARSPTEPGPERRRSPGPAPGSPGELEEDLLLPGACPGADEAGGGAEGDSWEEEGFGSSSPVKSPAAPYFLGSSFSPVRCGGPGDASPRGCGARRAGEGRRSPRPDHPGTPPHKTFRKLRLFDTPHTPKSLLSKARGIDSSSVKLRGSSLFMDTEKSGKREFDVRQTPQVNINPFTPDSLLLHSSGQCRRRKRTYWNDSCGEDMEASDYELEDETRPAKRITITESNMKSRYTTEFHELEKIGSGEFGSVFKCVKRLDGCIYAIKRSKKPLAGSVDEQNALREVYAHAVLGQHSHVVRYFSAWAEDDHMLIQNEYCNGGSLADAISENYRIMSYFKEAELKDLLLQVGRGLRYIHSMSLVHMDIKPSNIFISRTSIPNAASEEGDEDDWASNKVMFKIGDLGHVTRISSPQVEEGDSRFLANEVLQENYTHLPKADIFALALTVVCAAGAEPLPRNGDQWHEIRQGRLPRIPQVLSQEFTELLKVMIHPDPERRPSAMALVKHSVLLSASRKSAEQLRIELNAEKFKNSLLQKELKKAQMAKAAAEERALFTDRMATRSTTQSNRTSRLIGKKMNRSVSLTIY

SMILES	Wee1A kinase Binding IC50 [1]	IC50 [1]	EC50 [2]
COc1nc(Nc2ccc(C3CCN(C)CC3)c(C)c2)ncc1C(=O)Nc1cc(C#N)ccc1Cl [Compound 131, N-(2-chloro-5-cyanophenyl)-4-methoxy-2-((3-methyl-4-(1-methylpiperidin-4-yl)phenyl)amino)pyrimidine-5-carboxamide]	C (IC50 greater than 100 nM but less than or equal to 5.00 nM)	–	–
COc1nc(Nc2ccc([C@H]3CCCN(C)CC3)c(C)c2)ncc1C(=O)Nc1c(Cl)cccc1Br [Compound 208]	–	≤ 10 nM	–
COc1nc(Nc2ccc([C@H]3CCCNC3)c(C)c2)ncc1C(=O)Nc1c(Cl)cccc1Br [Compound 198, (R)—N-(2-bromo-6-chlorophenyl)-4-methoxy-2-((3-methyl-4-(piperidin-3-yl)phenyl)amino)pyrimidine-5-carboxamide]	–	≤ 10 nM	100 to 500 nM
COc1nc(Nc2ccc(C3CCN(C)CC3)c(C#N)c2)ncc1C(=O)Nc1c(Cl)ccc(O)c1C [Compound 157, N-(6-chloro-3-hydroxy-2-methylphenyl)-2-((3-cyano-4-(1-methylpiperidin-4-yl)phenyl)amino)-4-methoxypyrimidine-5-carboxamide]	–	10 to 100 nM	100 to 500 nM
COc1nc(Nc2ccc(C3CCN(C)CC3)nc2)ncc1C(=O)Nc1c(Cl)cccc1Cl [Compound 183, N-2,6-dichlorophenyl-4-methoxy-2-[6-(1-methyl-4-piperidyl)-3-pyridylamino]-5-pyrimidinecarboxamide]	–	10 to 100 nM	–
CN1CCN(c2ccc(Nc3ncc(C(=O)Nc4c(Cl)cccc4Cl)c(OCC4CCCO4)n3)cc2)CC1 (centres unmarked) [Compound 105]	–	≤ 10 nM	> 1000 nM
COc1nc(Nc2ccc(C3CCN(C)CC3)c(C)c2)ncc1C(=O)Nc1ccccc1C(F)(F)F [Compound 114, 4-methoxy-2-((3-methyl-4-(1-methylpiperidin-4-yl)phenyl)amino)-N-(2-(trifluoromethyl)phenyl)pyrimidine-5-carboxamide]	–	≤ 10 nM	> 1000 nM
COc1nc(Nc2ccc(C3CCN(C)CC3)c(C)c2)ncc1C(=O)Nc1c(F)cc(F)cc1Cl [Compound 127, N-(2-chloro-4,6-difluorophenyl)-4-methoxy-2-((3-methyl-4-(1-methylpiperidin-4-yl)phenyl)amino)pyrimidine-5-carboxamide]	–	≤ 10 nM	100 to 500 nM
COc1nc(Nc2ccc(OCCN3CCOCC3)c(C)c2)ncc1C(=O)Nc1c(Cl)ccc(O)c1C [Compound 151, N-(6-chloro-3-hydroxy-2-methylphenyl)-4-methoxy-2-((3-methyl-4-(2-morpholinoethoxy)phenyl)amino)pyrimidine-5-carboxamide]	–	–	> 1000 nM
COc1nc(Nc2ccc(C3CCN(C)CC3)c(C)c2)ncc1C(=O)Nc1c(F)cccc1Br [Compound 136, N-(2-bromo-6-fluorophenyl)-4-methoxy-2-((3-methyl-4-(1-methylpiperidin-4-yl)phenyl)amino)pyrimidine-5-carboxamide]	–	≤ 10 nM	100 to 500 nM
COc1nc(Nc2cnn([C@H]3CCCNCC3)c2)ncc1C(=O)Nc1c(Cl)cccc1Cl (single isomer, unassigned) [Compound 187]	–	≤ 10 nM	> 1000 nM
COc1nc(Nc2ccc(O[C@@H]3CCN(C)C3)c(C)c2)ncc1C(=O)Nc1c(Cl)ccc(O)c1C [Compound 153, (R)—N-(6-chloro-3-hydroxy-2-methylphenyl)-4-methoxy-2-((3-methyl-4-((1-methylpyrrolidin-3-yl)oxy)phenyl)amino)pyrimidine-5-carboxamide]	–	≤ 10 nM	≤ 100 nM
COc1nc(Nc2ccc(C3CCN(C)CC3)c(C)c2)ncc1C(=O)Nc1cc(NC(C)=O)ccc1C [Compound 169]	C (IC50 greater than 100 nM but less than or equal to 5.00 nM)	–	–
COc1nc(Nc2ccc(C3CCN(C)CC3)c(C)c2)ncc1C(=O)Nc1c(C)ccnc1Cl [Compound 117, N-(2-chloro-4-methylpyridin-3-yl)-4-methoxy-2-{[3-methyl-4-(1-methylpiperidin-4-yl)phenyl]amino}pyrimidine-5-carboxamide]	–	10 to 100 nM	–
COc1nc(Nc2ccc(C3CCN(C)CC3)c(C)c2)ncc1C(=O)Nc1cnccc1Cl [Compound 139, N-(4-chloropyridin-3-yl)-4-methoxy-2-((3-methyl-4-(1-methylpiperidin-4-yl)phenyl)amino)pyrimidine-5-carboxamide]	–	10 to 100 nM	–
COc1nc(Nc2ccc(C3CCN(C)CC3)c(C)c2)ncc1C(=O)Nc1c(C)ccnc1C [Compound 112, N-(2,4-dimethylpyridin-3-yl)-4-methoxy-2-{[3-methyl-4-(1-methylpiperidin-4-yl)phenyl]amino}pyrimidine-5-carboxamide]	–	10 to 100 nM	–
COc1nc(Nc2cnn(C[C@@H]3CCCN3)c2)ncc1C(=O)Nc1c(Cl)cccc1Cl [Compound 160]	–	10 to 100 nM	–
COc1nc(Nc2cnn(C[C@H]3CCCN3)c2)ncc1C(=O)Nc1c(Cl)cccc1Cl [Compound 159]	–	10 to 100 nM	–
COc1nc(Nc2ccc(C3CCN(C)CC3)c(C)c2)ncc1C(=O)Nc1cccc(O)c1 [Compound 118]	–	10 to 100 nM	–
COc1nc(Nc2ccc(C3CCN(C)CC3)c(C)c2)ncc1C(=O)Nc1ccccc1Cl [Compound 109, N-(2-chlorophenyl)-4-methoxy-2-((3-methyl-4-(1-methylpiperidin-4-yl)phenyl)amino)pyrimidine-5-carboxamide]	–	10 to 100 nM	–
CN(C)CCCOc1nc(Nc2ccc(N3CCN(C)CC3)cc2)ncc1C(=O)Nc1c(Cl)cccc1Cl [Compound 124, N-(2,6-dichlorophenyl)-4-(3-(dimethylamino)propoxy)-2-((4-(4-methylpiperazin-1-yl)phenyl)amino)pyrimidine-5-carboxamide]	C (IC50 greater than 100 nM but less than or equal to 5.00 nM)	–	–
COc1nc(Nc2ccc(C(=O)N3CCN(C)CC3)c(C)c2)ncc1C(=O)Nc1c(Cl)cccc1Cl [Compound 168]	–	10 to 100 nM	–
COc1nc(Nc2ccc(-c3ccn(C)c3)c(C)c2)ncc1C(=O)Nc1c(Cl)cccc1Br [Compound 191, N-(2-bromo-6-chlorophenyl)-4-methoxy-2-((3-methyl-4-(1-methyl-1H-pyrrol-3-yl)phenyl)amino)pyrimidine-5-carboxamide]	–	10 to 100 nM	–
COc1nc(Nc2ccc(C3CCN(C)CC3)c(C)c2)ncc1C(=O)Nc1ccccc1C#N [Compound 115, N-(2-cyanophenyl)-4-methoxy-2-((3-methyl-4-(1-methylpiperidin-4-yl)phenyl)amino)pyrimidine-5-carboxamide]	–	10 to 100 nM	–
COc1nc(Nc2ccc(C3CCN(C)CC3)c(C)c2)ncc1C(=O)Nc1cc([N+](=O)[O-])ccc1C [Compound 170]	C (IC50 greater than 100 nM but less than or equal to 5.00 nM)	–	–
CN1CCN(c2ccc(Nc3ncc(C(=O)Nc4c(Cl)cccc4Cl)c(OCC(F)(F)F)n3)cc2)CC1 [Compound 103, N-(2,6-dichlorophenyl)-2-{[4-(4-methylpiperazin-1-yl)phenyl]amino}-4-(2,2,2-trifluoroethoxy)pyrimidine-5-carboxamide]	–	10 to 100 nM	–
C#Cc1ccccc1NC(=O)c1cnc(Nc2ccc(C3CCN(C)CC3)c(C)c2)nc1OC [Compound 126, N-(2-ethynylphenyl)-4-methoxy-2-((3-methyl-4-(1-methylpiperidin-4-yl)phenyl)amino)pyrimidine-5-carboxamide]	–	10 to 100 nM	–
